Measurements published in patent US5650411A, “Substituted azolone derivatives” (Janssen Pharmaceutica N.V., priority 1993, dated 1997).
Converted amounts (≈) assume the structure as drawn.

Test system: Helicobacter pylori
Test: Minimal inhibitory concentration (MIC) against Helicobacter pylori, urease read-out, 5 clinical strains
Type: cell-based
Conditions: 5 H. pylori clinical strains, 10% blood agar, 48 h at 37° C., microaerophilic, read-out: MIC
Experimental: The anti-Helicobacter activity of the subject compounds was assessed by the following in-vitro test procedure.
The activity of test compounds against Helicobacter pylori was determined against a standard set of 5 H. priori strains obtained from clinical material. Minimal inhibitory concentrations (MICs) were determined by measuring the activity of H. pylori urease after treatment of growing cultures of the bacteria with the antimicrobial agents.
The test compounds were dissolved in DMSO at a concentration of 10^-3 M. A dilution to 10^-4 M in DMSO was also prepared. 10 μl volumes of these solutions were pipetted in the wells of Repli-Dishes (®Sterilin). Wells containing DMSO alone were included as controls in each Repli-Dish. Ampicillin ((+)-6-[(2-amino-2-phenylacetyl)amino]-3,3-dimethyl-7-oxo-4-thia-1-azabicyclo[3.2.0]heptane-2-carboxylic acid trihydrate) and metronidazole (2-methyl-5-nitro-1H-imidazol-1-ethanol) were included as reference compounds in each batch of tests. (These compounds were tested at final concentrations of 10^-5, 10^-6, 10^-7 and 10^-8 M). Test plates were stored at 4° C. until used. The five isolates of H. pylori were maintained by subculture on 10% blood agar every 2 or 3 days. The bacteria were grown at 37° C. under an atmosphere containing 5% oxygen, 10% CO2 and 85% nitrogen. Suspensions of Helicobacter pylori for inoculum were prepared in Brain-heart infusion broth and adjusted to an absorbance of 1.5±0.3 at […].
Freshly prepared 10% blood agar held at 45° C. was added in 1 ml volumes to the wells of the test plates, thus diluting the test compounds to 10^-5 and 10^-6 M. The medium was allowed to cool, then 10 μl volumes of bacterial suspension were pipetted on the agar surface. The plates were incubated for 48 h at 37° C. under the microaerophilic atmosphere described above. […] After the 48 h of incubation, 1 ml volumes of urease broth were gently added to each Repli-Dish well and the plates were incubated at 37° C. for 2 h. 100 μl samples of fluid from each well were then pipetted into the wells of 96-place microdilution plates. A purple colour was interpreted as growth, yellow-orange as no growth of H. pylori. By this means a clear end-point was obtained, from which the inhibitory effects could be determined.
Table 1 summarizes the MIC values determined by the above procedure for a subset of the subject compounds.

Row | MIC | Compound
1 | 0.1 µM (≈ 0.0532 µg/mL) | CCC(C(=O)c1ccc(Cl)cc1)n1ncn(-c2ccc(N3CCC(c4cccc(OC)c4)CC3)nc2)c1=O (racemic) [compound 7, (±)-2-[1-(4-chlorobenzoyl)propyl]-2,4-dihydro-4-[6-[4-(3-methoxyphenyl)-1-piperidinyl]-3-pyridinyl]-3H-1,2,4-triazol-3-one]
2 | 0.01 µM (≈ 0.00562 µg/mL) | CCC(C(=O)c1ccc(Cl)cc1)n1ncn(-c2ccc(N3CCC(c4ccc(OC)c(OC)c4)CC3)nc2)c1=O (racemic) [compound 45, (±)-2-[1-(4-chlorobenzoyl)propyl]-4-[6-[4-(3,4-dimethoxyphenyl)-1-piperidinyl]-3-pyridinyl]-2,4-dihydxo-3H-1,2,4-triazol-3-one]
3 | 0.1 µM (≈ 0.0533 µg/mL) | CCC(C(=O)c1ccc(Cl)cc1)n1ncn(-c2ccc(N3CCN(c4ccc(OC)cc4)CC3)nc2)c1=O (racemic) [compound 1, (±)-2-[1-(4-chlorobenzoyl)propyl]-2,4-dihydro-4-[6-[4-(4-methoxyphenyl)-1-piperazinyl]-3-pyridinyl]-3H-1,2,4-triazol-3-one]
4 | 1 µM (≈ 0.532 µg/mL) | CCC(C(=O)c1ccc(Cl)cc1)n1ncn(-c2ccc(N3CCN(c4ccc(OC)cc4)CC3)cc2)c1=O (single isomer, unassigned; (+)) [compound 31, (+)-(A)-2-[1-(4-chlorobenzoyl)propyl]-2,4-dihydro-4-[4-[4-(4-methoxyphenyl)-1-piperazinyl]phenyl]-3H-1,2,4-triazol-3-one]
5 | 0.1 µM (≈ 0.0564 µg/mL) | CC(C)(C(O)c1ccc(Br)cc1)n1ncn(-c2ccc(N3CCN(c4ccc(O)cc4)CC3)cc2)c1=O (racemic) [compound 21, (±)-2-[2-(4-bromophenyl)-2-hydroxy-1,1-dimethylethyl]-2,4-dihydro-4-[4-[4-(4-hydroxyphenyl)-1-piperazinyl]phenyl]-3H-1,2,4-triazol-3-one]
6 | 0.1 µM (≈ 0.0593 µg/mL) | CCC(C)(C(O)c1ccc(Br)cc1)n1nc(C)n(-c2ccc(N3CCN(c4ccc(O)cc4)CC3)cc2)c1=O (racemic) [compound 13, (±)-2-[1-[(4-bromophenyl)hydroxymethyl]-1-methylpropyl]-2,4-dihydro-4-[4-[4-(4-hydroxyphenyl)-1-piperazinyl]phenyl]-5-methyl-3H-1,2,4-triazol-3-one]
7 | 0.01 µM (≈ 0.00533 µg/mL) | CCC(C(=O)c1ccc(Cl)cc1)n1ncn(-c2ccc(N3CCN(c4cccc(OC)c4)CC3)nc2)c1=O (racemic) [compound 4, (±)-2-[1-(4-chlorobenzoyl)propyl]-4-[6-[4-(3-methoxyphenyl)-1-piperazinyl]-3-pyridinyl]-2,4-dihydro-3H-1,2,4-triazol-3-one]
8 | 0.1 µM (≈ 0.0549 µg/mL) | CCC[C@H]([C@H](O)c1ccc(Cl)cc1)n1ncn(-c2ccc(N3CCN(c4cccc(OC)c4)CC3)nc2)c1=O (relative stereo) [compound 40, (±)-(R* ,R*)-2-[1-[(4-chlorophenyl)hydroxymethyl]butyl]-2,4-dihydro-4-[6-[4-(3-methoxyphenyl)-1-piperazinyl]-3-pyridinyl]-3H-1,2,4-triazol-3-one]
9 | 0.1 µM (≈ 0.0534 µg/mL) | CC[C@H]([C@H](O)c1ccc(Cl)cc1)n1ccn(-c2ccc(N3CCN(c4ccc(OC)cc4)CC3)nc2)c1=O (relative stereo) [compound 38, (±)-(R*,R*)-1-[1-[(4-chlorophenyl)hydroxymethyl]propyl]-1,3-dihydro-3-[6-[4-(4-methoxyphenyl)-1-piperazinyl]-3-pyridinyl]-2H-imidazol-2-one]

Further lines, the compound ahead of its results:

Row | Compound | MIC
10 | Cc1cn(C(C)C(=O)c2ccc(Cl)cc2)c(=O)n1-c1ccc(N2CCN(c3ccc(O)cc3)CC2)cc1 (centres unmarked) [compound 30, 1-[1-(4-chlorobenzoyl)ethyl]-1,3-dihydro-3-[4-[4-(4-hydroxyphenyl)-1-piperazinyl]phenyl]-4-methyl-2H-imidazol-2-one] | 1 µM (≈ 0.517 µg/mL)
11 | COc1ccc(C(=O)C(C)n2ncn(-c3ccc(N4CCN(c5ccc(O)cc5)CC4)cc3)c2=O)cc1 (centres unmarked) [compound 35, 2,4-dihydro-4-[4-[4-(4-hydroxyphenyl)-1-piperazinyl]phenyl]-2-[1-(4-methoxy-benzoyl)ethyl]-3H-1,2,4-triazol-3-one] | 10 µM (≈ 5 µg/mL)
12 | Cc1nn(CC(O)c2ccc(OC(F)(F)F)cc2)c(=O)n1-c1ccc(N2CCN(c3ccc(O)cc3)CC2)cc1 (racemic) [compound 36, (±)-2,4-dihydro-4-[4-[4-(4-hydroxyphenyl)-1-piperazinyl]phenyl]-2-[2-hydroxy-2-[4-(trifluoromethoxy)-phenyl]ethyl]-5-methyl-3H-1,2,4-triazol-3-one] | 10 µM (≈ 5.56 µg/mL)
13 | Cc1nn(C(C)C(O)c2ccc(Br)cc2)c(=O)n1-c1ccc(N2CCN(c3ccc(O)cc3)CC2)nc1 (centres unmarked) [compound 23, 2-[2-(4-bromophenyl)-2-hydroxy-1-methylethyl]-2,4-dihydro-4-[6-[4-(4-hydroxy-phenyl)-1-piperazinyl]-3-pyridinyl]-5-methyl-3H-1,2,4-triazol-3-one] | 1 µM (≈ 0.565 µg/mL)
14 | CCC(C(=O)c1ccc(Cl)cc1)n1ncn(-c2ccc(N3CCN(c4ccccc4O)CC3)nc2)c1=O (racemic) [compound 29, (±)-2-[1-(4-chlorobenzoyl)propyl]-2,4-dihydro-4-[6-[4-(2-hydroxyphenyl)-1-piperazinyl]-3-pyridinyl]-3H-1,2,4-triazol-3-one] | 0.1 µM (≈ 0.0519 µg/mL)
15 | CCC(C(=O)c1ccc(Cl)cc1)n1ncn(-c2ccc(N3CCN(c4ccc(O)cc4)CC3)nc2)c1=O (racemic) [compound 25, (±)-2-[1-(4-chlorobenzoyl)propyl]-2,4-dihydro-4-[6-[4-(4-hydroxyphenyl)-1-piperazinyl]-3-pyridinyl]-3H-1,2,4-triazol-3-one] | 0.1 µM (≈ 0.0519 µg/mL)
16 | CC[C@H]([C@H](O)c1ccc(Cl)cc1)n1ncn(-c2ccc(N3CCN(c4ccccc4OC)CC3)nc2)c1=O (relative stereo) [compound 17, (±)-(R*,R*)-2-[1-[(4-chlorophenyl)hydroxymethyl]propyl]-2,4-dihydro-4-[6-[4-(2-methoxyphenyl)-1-piperazinyl]-3-pyridinyl]-3H-1,2,4-triazol-3-one] | 0.1 µM (≈ 0.0535 µg/mL)
17 | CCC(C(=O)c1ccc(Cl)cc1)n1ncn(-c2ccc(N3CCN(c4cccc(O)c4)CC3)nc2)c1=O (racemic) [compound 28, (±)-2-[1-(4-chlorobenzoyl)propyl]-2,4-dihydro-4-[6-[4-(3-hydroxyphenyl)-1-piperazinyl]-3-pyridinyl]-3H-1,2,4-triazol-3-one] | 0.01 µM (≈ 0.00519 µg/mL)
18 | Cc1ccc(C(O)C(C)n2ncn(-c3ccc(N4CCN(c5ccc(O)cc5)CC4)cc3)c2=O)cc1 (centres unmarked) [compound 33, 2,4-dihydro-2-[2-hydroxy-1-methyl-2-(4-methylphenyl)ethyl]-4-[4-[4-(4-hydroxyphenyl)-1-piperazinyl]phenyl]-3H-1,2,4-triazol-3-one] | 1 µM (≈ 0.486 µg/mL)
19 | CC[C@H]([C@H](O)c1ccc(Cl)cc1)n1ncn(-c2ccc(N3CCN(c4ccc(OC)cn4)CC3)cc2)c1=O (relative stereo) [compound 15, (±)-(RR,SS)-2-[1-[(4-chlorophenyl)hydroxymethyl]propyl]-2,4-dihydro-4-[4-[4-(5-methoxy-2-pyridinyl)-1-piperazinyl]phenyl]-3H-1,2,4-triazol-3-one] | 0.1 µM (≈ 0.0535 µg/mL)
20 | Cc1cc(N2CCN(c3ccc(-n4c(C)nn([C@H](C)[C@H](O)c5ccc(Cl)c(Cl)c5)c4=O)cc3)CC2)cc(C)c1O (relative stereo) [compound 10, (±)-(R*,R*)-2-[2-(3,4-dichlorophenyl)-2-hydroxy-1-methylethyl]-2,4-dihydro-4-[4-[4-(4-hydroxy-3,5-dimethylphenyl)-1-piperazinyl]phenyl]-5-methyl-3H-1,2,4-triazol-3-one hemihydrate] | 1 µM
21 | CC(C(O)c1ccc(Cl)cc1)n1ccn(-c2ccc(N3CCN(c4ccc(O)cc4)CC3)cc2)c1=O (centres unmarked) [compound 12, 1-[2-(4-chlorophenyl)-2-hydroxy-1-methylethyl]-1,3-dihydro-3-[4-[4-(4-hydroxy-phenyl)-1-piperazinyl]phenyl]-2H-imidazol-2-one] | 0.1 µM (≈ 0.0505 µg/mL)
22 | Cc1cc(N2CCN(c3ccc(-n4c(C)nn([C@H](C)[C@H](O)c5ccc(Cl)cc5Cl)c4=O)cc3)CC2)cc(C)c1O (single isomer, unassigned) [compound 32, (+)-(R*,R*)-2-[2-(2,4-dichlorophenyl)-2-hydroxy-1-methylethyl]-2,4-dihydro-4-[4-[4-(4-hydroxy-3,5-dimethylphenyl)-1-piperazinyl]phenyl]-5-methyl-3H-1,2,4-triazol-3-one dihydrate] | 1 µM
23 | CC(C(O)c1ccc(Br)cc1)n1ccn(-c2ccc(N3CCN(c4ccc(O)cc4)CC3)cc2)c1=O (centres unmarked) [compound 9, [A]+[B]-1-[2-(4-bromophenyl)-2-hydroxy-1-methylethyl]-1,3-dihydro-3-[4-[4-(4-hydroxyphenyl)-1-piperazinyl]phenyl]-2H-imidazol-2-one] | 1 µM (≈ 0.549 µg/mL)
